Assay results from paper PMC10661773, “Cytotoxic pathways activated by multifunctional thiosemicarbazones targeting sigma-2 receptors in breast and lung carcinoma cells” (Pharmacological Reports, 2023).

What was measured:
MCF7 cells = assay: Mitochondrial depolarization, JC-1 staining; assay type: cell-based, human; settings: MCF7, 2 h, 50 µM
Protocol: (§1) Staining with the JC-1 fluorescent probe (Biotium Inc., Freemont, CA; #30,001-30001-T) was performed as described in Riganti et al. 2015 [21]. Fluorescence units were used to calculate the percentage of green-fluorescent (i.e., depolarized) mitochondria vs red-fluorescent (i.e., polarized) mitochondria.

A549 cells = assay: Mitochondrial depolarization, JC-1 staining; assay type: cell-based, human; settings: A549, 2 h, 50 µM
Protocol: as §1

A549 = assay: Cell viability, MTT assay at 48 h; assay type: cell-based; settings: Homo sapiens, A549; MTT, 48 h; read-out: EC50 ± SEM, tumor cells A549
Protocol: (§2) Human MCF7 breast adenocarcinoma (#HTB-22) and human A549 carcinoma (#CCL-85) cell lines, non-tumor human breast (MCF10A, #CRL-10317) and lung (BEAS-2B, #CRL-9482) cells were obtained from American Type Culture Collection (ATCC, Bethesda, MD). MCF7 cells were cultured in DMEM medium (Gibco Thermo Scientific, Waltham, MA; #10,565,018), A549 in HAM’s F12 medium (Gibco Thermo Scientific; #11,765,054), and BEAS-2B in RPMI-1640 medium (Gibco Thermo Scientific; # 61,870,010), all supplemented with 10% v/v fetal bovine serum (FBS; Sigma, St. Louis, MO; #F4135) and 1% v/v penicillin–streptomycin (Sigma; #P4458). MCF10A cells were cultured in DMEM/F12 medium (Gibco Thermo Scientific; #31,331,028) supplemented with 5% v/v horse serum (Sigma; #H1270) and 1% v/v penicillin–streptomycin, 20 ng/mL epidermal growth factor (Sigma, #E4127), 10 µg/mL insulin (Sigma, #I3536), […] hydrocortisone (Sigma, #H0888), 100 ng/mL cholera toxin (Sigma, #C8052). Cells were kept in a humidified incubator at 37 °C with 5% CO2.
(§3) Cell growth was determined using the MTT assay at 48 h. On day 1, 25,000 cells/well were seeded into 96-well plates in a volume of 100 μL. On day 2, the various drug concentrations (1 μM–100 μM) were added. In all experiments, the various drug solvents (EtOH, Sigma, # E7148; DMSO, Sigma, # D8418) were added to each control to evaluate possible cytotoxicity of the solvent. After the established incubation time with drugs (48 h), MTT (0.5 mg/mL, Sigma # M2003) was added to each well, and after 3–4 h incubation at 37 °C, the supernatant was removed. Formazan crystals were solubilized using 100 μl of DMSO/EtOH (1:1) and absorbance values at 570 and 630 nm were determined on the microplate reader Victor 3 from PerkinElmer Life Sciences (Waltham, MA).

MCF7 = assay: Cell viability, MTT assay at 48 h; assay type: cell-based; settings: Homo sapiens, MCF7; MTT, 48 h; read-out: EC50 ± SEM, tumor cells MCF7
Protocol: as §2, §3

MCF10A = assay: Cell viability, MTT assay at 48 h; assay type: cell-based; settings: Homo sapiens, MCF-10A, read-out: EC50 ± SEM, normal cells MCF10A
Protocol: as §2, §3

BEAS-2B = assay: Cell viability, MTT assay at 48 h; assay type: cell-based; settings: Homo sapiens, read-out: EC50 ± SEM, normal cells BEAS-2B
Protocol: as §2, §3

MCF7 and A549 cell lines = assay: Cytotoxic activity across the two tumor cell lines (MTT); assay type: cell-based; settings: Homo sapiens; MCF7 and A549, MTT 48 h; read-out: EC50 range in the two tumor cell lines
Protocol: as §2
Cell growth was determined using the MTT assay at 48 h. On day 1, 25,000 cells/well were seeded into 96-well plates in a volume of 100 μL. […] Formazan crystals were solubilized using 100 μl of DMSO/EtOH (1:1) and absorbance values at 570 and 630 nm were determined on the microplate reader Victor 3 from PerkinElmer Life Sciences (Waltham, MA).

CN(C)C(=S)N/N=C1\C(=O)N(CCCCN2CCC3(CC2)OCc2ccccc23)c2ccccc21 [FA4, (Z)-2-(1-(4-(3H-spiro[isobenzofuran-1,4′-piperidine]-1′-yl)butyl)-2-oxoindolin-3-ylidene)-N,N-dimethylhydrazinecarbothioamide]
Mitochondrial depolarization (JC-1 staining) (MCF7 cells): strong depolarization
Mitochondrial depolarization (JC-1 staining) (A549 cells): totally insensitive
EC50 (A549): 1840 ± 400 nM
EC50 (MCF7): 1530 ± 300 nM
EC50 (MCF10A): 4310 ± 700 nM
EC50 (BEAS-2B): 4470 ± 1100 nM
EC50 (MCF7 and A549 cell lines): 1530 to 1840 nM
